# Test results taken from US11111237B2, “Bicyclic compound and use thereof” (SK BIOPHARMACEUTICALS CO., LTD., priority 2019, dated 2021).
# Structures can show the parent of a compound that is named as a salt.
# Molecular target: PRMT5-MEP50 enzyme complex (Homo sapiens (Human), UniProt O14744)
# Test: PRMT5 enzyme activity in vitro assay (methylation of histone H4R3, ELISA absorbance at 450 nm)
# Assay type: biochemical
# Details: SAM, histone H4 peptide, room temperature 2 hours, 8 points from 10 μM to 0.128 nM
# Experimental: Method for Measuring Enzyme Activity
# In vitro assay: PRMT5-MEP50 enzyme complex, cofactor S-adenosylmethionine (SAM) and histone H4 peptide were reacted in vitro, and methylation of arginine (H4R3)—which is the third amino acid of histone H4—was measured in order to measure the enzyme activity of PRMT5.
# Reagents: PRMT5-MEP50 enzyme complex (Catalog No. 51045), blocking buffer (52100-B), histone methyltransferase reaction buffer 2 (4×HMT assay buffer 2, Catalog No. 52170), and primary antibody (primary antibody 4-3, Catalog No. 52150) were purchased from BPS Bioscience (USA). The histone H4 peptide (1-20 amino acids) was custom made by Komabiotech (Korea) and used. S-adenosylmethionine was purchased from NEB (New England Biolabs, USA, Catalog No. B9003S). Plates for coating histone H4 peptide, washing buffer and color development reagent were purchased from the following vendors: Plate (Immobilizer™-Amino Plate, NUNC, Denmark, Catalog No. 436023), carbonate-bicarbonate buffer (Sigma-Aldrich, USA, Catalog No. C3041), washing buffer (10×TBST, Biosesang, Korea, Catalog No. T2005), TMB ELISA substrate (Abcam, UK, Catalog No. ab210902), horseradish peroxidase (HRP)-conjugated antibody (Abcam, UK, Catalog No. ab6721).
# Experimental procedure: The histone H4 peptide was diluted with carbonate-bicarbonate buffer and prepared to 100 μg/mL, and then dispensed onto the plate per 100 μL and reacted at 37° C. for 1 hour. PRMT5-MEP50 enzyme complex and S-adenosylmethionine were diluted with histone methyltransferase reaction buffer to prepare 5 μg/mL and 2 μM, respectively, and then 20 μL of PRMT5-MEP50 enzyme complex and 25 μL of S-adenosylmethionine were dispensed onto the plate prepared above. 5 μL of the compound diluted with 10% dimethyl sulfoxide solution was added thereto and reacted at room temperature for 2 hours (final volume=50 μL). The concentration of the compound was diluted 1:5 from 10 μM until the lowest concentration of 0.128 nM, and 8 points were used for the test. After preparing the primary antibody by diluting 1:2000 with blocking buffer, 100 μL was added to the plate and reacted at room temperature for 1 hour. After preparing horseradish peroxidase-conjugated antibody by diluting 1:10,000 with blocking buffer, 100 μL was added to the plate and reacted at room temperature for 1 hour. 100 μL of TMB substrate was added and reacted for 3 minutes at room temperature, and 100 μL of 1 N sulfuric acid was then added to terminate the reaction. Then, the absorbance at 450 nm was measured to calculate the IC50 value of the compound. (+++: 1 to 100 nM, ++: greater than 100 to 1,000 nM, +: greater than 1,000 to 10,000 nM)
# Chain of PRMT5-MEP50 enzyme complex (O14744 2-637): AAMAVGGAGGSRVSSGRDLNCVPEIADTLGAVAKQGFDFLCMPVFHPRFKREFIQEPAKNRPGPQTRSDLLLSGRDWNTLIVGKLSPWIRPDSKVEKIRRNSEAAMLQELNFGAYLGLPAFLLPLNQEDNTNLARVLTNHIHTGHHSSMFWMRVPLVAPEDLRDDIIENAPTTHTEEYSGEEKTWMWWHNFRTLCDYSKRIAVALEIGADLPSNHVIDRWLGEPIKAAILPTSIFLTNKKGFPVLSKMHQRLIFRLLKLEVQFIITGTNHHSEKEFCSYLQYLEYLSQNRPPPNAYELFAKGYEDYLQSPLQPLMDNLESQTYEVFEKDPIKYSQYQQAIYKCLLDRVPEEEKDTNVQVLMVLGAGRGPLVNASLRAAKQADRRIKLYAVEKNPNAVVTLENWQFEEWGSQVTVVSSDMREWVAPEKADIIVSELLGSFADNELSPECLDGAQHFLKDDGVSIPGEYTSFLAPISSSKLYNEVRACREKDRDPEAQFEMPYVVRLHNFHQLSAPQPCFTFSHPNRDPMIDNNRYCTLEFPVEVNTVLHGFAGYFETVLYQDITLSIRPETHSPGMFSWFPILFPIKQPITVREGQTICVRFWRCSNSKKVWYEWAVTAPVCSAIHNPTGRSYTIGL
# Chain of PRMT5-MEP50 enzyme complex (Q9BQA1 2-342 partner): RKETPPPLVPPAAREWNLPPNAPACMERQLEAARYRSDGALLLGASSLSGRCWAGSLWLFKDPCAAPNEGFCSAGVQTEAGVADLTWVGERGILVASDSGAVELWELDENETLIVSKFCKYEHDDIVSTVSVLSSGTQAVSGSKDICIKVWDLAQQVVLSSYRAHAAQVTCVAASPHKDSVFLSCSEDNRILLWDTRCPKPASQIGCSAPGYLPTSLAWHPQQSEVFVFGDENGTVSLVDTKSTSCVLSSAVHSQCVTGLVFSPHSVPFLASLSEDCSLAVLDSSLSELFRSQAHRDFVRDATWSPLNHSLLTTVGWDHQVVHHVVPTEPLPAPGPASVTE
row,SMILES,IC50 [µM]
1,"O=C1c2ccc(F)cc2OCCN1C[C@H](O)CN1CCc2ccccc2C1 [Example 150, 4-[(2R)-3-(3,4-dihydro-1H-isoquinolin-2-yl)-2-hydroxy-propyl]-8-fluoro-2,3-dihydro-1,4-benzoxazepin-5-one]",0.1 to 1
2,"CC(=O)N1CCN(Cc2ccc3c(c2)OCCN(C[C@H](O)CN2CCc4ccccc4C2)C3=O)CC1 [Example 53, 8-[(4-acetylpiperazin-1-yl)methyl]-4-[(2R)-3-(3,4-dihydro-1H-isoquinolin-2-yl)-2-hydroxy-propyl]-2,3-dihydro-1,4-benzoxazepin-5-one]",0.1 to 1
3,"O=C1c2ccc(CN3CCC(F)CC3)cc2OCCN1C[C@H](O)CN1CCc2ccccc2C1 [Example 32, 4-[(2R)-3-(3,4-dihydro-1H-isoquinolin-2-yl)-2-hydroxy-propyl]-8-[(4-fluoro-1-piperidyl)methyl]-2,3-dihydro-1,4-benzoxazepin-5-one]",0.001 to 0.1
4,"O=C1c2ccc(OCc3cccnc3)cc2OCCN1C[C@H](O)CN1CCc2ccccc2C1 [Example 56, 4-[(2R)-3-(3,4-dihydro-1H-isoquinolin-2-yl)-2-hydroxy-propyl]-8-(3-pyridylmethoxy)-2,3-dihydro-1,4-benzoxazepin-5-one]",0.1 to 1
5,"C[C@H]1CN(C[C@H](O)CN2CCc3ccccc3C2)C(=O)c2ccc(OC3CN(CCF)C3)cc2O1 [Example 201, (2S)-4-[(2R)-3-(3,4-dihydro-1H-isoquinolin-2-yl)-2-hydroxy-propyl]-8-[1-(2-fluoroethyl)azetidin-3-yl]oxy-2-methyl-2,3-dihydro-1,4-benzoxazepin-5-one]",0.1 to 1
6,"C[C@H]1CN(C[C@H](O)CN2CCc3ccccc3C2)C(=O)c2ccc(OC3CCN(CCF)CC3)cc2O1 [Example 202, (2S)-4-[(2R)-3-(3,4-dihydro-1H-isoquinolin-2-yl)-2-hydroxy-propyl]-8-[1-(2-fluoroethyl)-4-piperidyl]oxy-2-methyl-2,3-dihydro-1,4-benzoxazepin-5-one]",0.001 to 0.1
7,"O=C1c2ccc(CN3CCC(F)(F)C3)cc2OCCN1C[C@H](O)CN1CCc2ccccc2C1 [Example 52, 8-[(3,3-difluoropyrrolidin-1-yl)methyl]-4-[(2R)-3-(3,4-dihydro-1H-isoquinolin-2-yl)-2-hydroxy-propyl]-2,3-dihydro-1,4-benzoxazepin-5-one]",0.1 to 1
8,"COc1ccc2c(c1)CCCN(CC(O)CN1CCc3ccccc3C1)C2=O (stereo not shown) [Example 2, 2-[3-(3,4-dihydro-1H-isoquinolin-2-yl)-2-hydroxy-propyl]-7-methoxy-4,5-dihydro-3H-2-benzazepin-1-one]",0.1 to 1
9,"CC1(C)CN(C[C@H](O)CN2CCc3ccccc3C2)C(=O)c2ccc(CN3CCN(C4COC4)CC3)cc2O1 [Example 182, 4-[(2R)-3-(3,4-dihydro-1H-isoquinolin-2-yl)-2-hydroxy-propyl]-2,2-dimethyl-8-[[4-(oxetan-3-yl)piperazin-1-yl]methyl]-3H-1,4-benzoxazepin-5-one]",0.1 to 1
10,"O=C1c2ccc(CN3CCCC(F)C3)cc2OCCN1C[C@H](O)CN1CCc2ccccc2C1 (stereo partly drawn) [Example 43, 4-[(2R)-3-(3,4-dihydro-1H-isoquinolin-2-yl)-2-hydroxy-propyl]-8-[(3-fluoro-1-piperidyl)methyl]-2,3-dihydro-1,4-benzoxazepin-5-one]",0.001 to 0.1
11,"CN(C1CCC(Oc2ccc3c(c2)OCCN(C[C@H](O)CN2CCc4ccccc4C2)C3=O)CC1)C1COC1 (stereo partly drawn) [Example 198, 4-[(2R)-3-(3,4-dihydro-1H-isoquinolin-2-yl)-2-hydroxypropyl]-8-[4-[methyl(oxetan-3-yl)amino]cyclohexoxy]-2,3-dihydro-1,4-benzoxazepin-5-one]",0.001 to 0.1
12,"C[C@@H]1CN(C[C@H](O)CN2CCc3ccccc3C2)C(=O)c2ccc(OC3CCN(CCO)C[C@H]3F)cc2O1 (stereo partly drawn) [Example 255, (2R)-4-[(2R)-3-[(2R)-3-(3,4-dihydro-1H-isoquinolin-2-yl)-2-hydroxy-propyl]-8-[[(3R,4R)-3-fluoro-1-(2-hydroxyethyl)-4-piperidyl]oxy]-2-methyl-2,3-dihydro-1,4-benzoxazepin-5-one dihydrochloride]",0.1 to 1
13,"COCCN1CC[C@@H](Oc2ccc3c(c2)O[C@H](C)CN(C[C@H](O)CN2CCc4ccccc4C2)C3=O)C1 [Example 274, (2R)-4-[(2R)-3-(3,4-dihydro-1H-isoquinolin-2-yl)-2-hydroxy-propyl]-8-[(3R)-1-(2-methoxyethyl)pyrrolidin-3-yl]oxy-2-methyl-2,3-dihydro-1,4-benzoxazepin-5-one]",0.1 to 1
14,"O=C1c2ccc(CN3CC4CC3CO4)cc2OCCN1C[C@H](O)CN1CCc2ccccc2C1 (stereo partly drawn) [Example 55, 4-[(2R)-3-(3,4-dihydro-1H-isoquinolin-2-yl)-2-hydroxy-propyl]-8-(2-oxa-5-azabicyclo[2.2.1]heptan-5-ylmethyl)-2,3-dihydro-1,4-benzoxazepin-5-one]",0.1 to 1
15,"CCC(=O)c1ccc2c(c1)OCCN(C[C@H](O)CN1CCc3ccccc3C1)C2=O [Example 214, 4-[(2R)-3-(3,4-dihydro-1H-isoquinolin-2-yl)-2-hydroxy-propyl]-8-propanoyl-2,3-dihydro-1,4-benzoxazepin-5-one]",0.1 to 1
16,"O=C1c2c(F)cc(CN3CCOCC3)cc2OCCN1C[C@H](O)CN1CCc2ccccc2C1 [Example 108, 4-[(2R)-3-(3,4-dihydro-1H-isoquinolin-2-yl)-2-hydroxy-propyl]-6-fluoro-8-(morpholinomethyl)-2,3-dihydro-1,4-benzoxazepin-5-one]",1 to 10
17,"CCOc1ccc2c(c1)CCCN(C[C@H](O)CN1CCc3ccccc3C1)C2=O [Example 7, 2-[(2R)-3-(3,4-dihydro-1H-isoquinolin-2-yl)-2-hydroxy-propyl]-7-ethoxy-4,5-dihydro-3H-2-benzazepin-1-one]",0.1 to 1
18,"CC(C)N1CCC(Oc2ccc3c(c2)OCCN(C[C@H](O)CN2CCc4ccccc4C2)C3=O)CC1 [Example 89, 4-[(2R)-3-(3,4-dihydro-1H-isoquinolin-2-yl)-2-hydroxy-propyl]-8-[(1-isopropyl-4-piperidyl)oxy]-2,3-dihydro-1,4-benzoxazepin-5-one]",0.001 to 0.1
19,"CCN1C2CCC1CC(Oc1ccc3c(c1)OCCN(C[C@H](O)CN1CCc4ccccc4C1)C3=O)C2 (stereo partly drawn) [Example 171, 4-[(2R)-3-(3,4-dihydro-1H-isoquinolin-2-yl)-2-hydroxy-propyl]-8-[(8-ethyl-8-azabicyclo[3.2.1]octan-3-yl)oxy]-2,3-dihydro-1,4-benzoxazepin-5-one]",0.001 to 0.1
20,"O=C1c2ccc(OC3CN(C4COC4)C3)cc2OCCN1C[C@H](O)CN1CCc2ccccc2C1 [Example 96, 4-[(2R)-3-(3,4-dihydro-1H-isoquinolin-2-yl)-2-hydroxy-propyl]-8-[1-(oxetan-3-ylyl)azetidin-3-yl]oxy-2,3-dihydro-1,4-benzoxazepin-5-one]",0.1 to 1
21,"Cc1nn(C)cc1-c1ccc2c(c1)OCCN(C[C@H](O)CN1CCc3ccccc3C1)C2=O [Example 231, 4-[(2R)-3-(3,4-dihydro-1H-isoquinolin-2-yl)-2-hydroxy-propyl]-8-(1,3-dimethylpyrazol-4-yl)-2,3-dihydro-1,4-benzoxazepin-5-one]",0.001 to 0.1
22,"O=C(c1ccc2c(c1)OCCN(C[C@H](O)CN1CCc3ccccc3C1)C2=O)N1CCCC(C(F)(F)F)C1 (stereo partly drawn) [Example 185, 4-[(2R)-3-(3,4-dihydro-1H-isoquinolin-2-yl)-2-hydroxy-propyl]-8-[3-(trifluoromethyl)piperidine-1-carbonyl]-2,3-dihydro-1,4-benzoxazepin-5-one]",0.1 to 1
